Source: patent US5399568A, “Methanoanthrancenyl piperidyl antipsychotics” (Imperial Chemical Industries plc, priority 1991, dated 1995)

Legend:
[1] = biological target: T1, dopamine (DA) D-2 receptor (Rattus norvegicus, UniProt P61169); test: Test A: antagonism of [^3 H]-spiperone binding (D-2 receptor binding assay, rat striatal membranes); details: 0.5 nM [^3 H] spiperone, 40 nM ketanserin, pH 7.7, 37° C., 15 min, typical values, read-out: IC50 (drug concentration which produced a 50% displacement of [^3 H] spiperone)
T1 construct: rat striatal membranes were used; from tissue; host or cells: rat striatum (membranes)
Text: (§1) The compounds of Formula I are antagonists of dopamine D-2 receptors, and as such are predicted to be useful as antipsychotic drugs. D-2 antagonism can be shown by standard tests such as antagonism of [^3 H]-spiperone binding (Test A), and/or antagonism of apomorphine-induced climbing and apomorphine- induced disruption of swimming (Test B).
The receptor binding assay used to measure affinities of various compounds for the dopamine (DA) D-2 receptor subtype was that described by Saller and Salama in J Pharmacol Exp Ther 236, page 714, 1986.
Specifically, rat striatal membranes were used. Tissue membranes were prepared and washed once in 50 volumes of the appropriate Tris HCl buffer. For the D-2 receptor binding assay, striatal membranes were suspended to a final concentration of 8 mg/ml in 50 mM Tris HCl with 40 nM ketanserin, pH 7.7. Nonspecific binding to D-2 receptors was measured in the presence of 1.0 μM (+)-butaclamol. IC50 s (drug concentration which produced a 50% displacement) for the displacement of 0.5 nM [^3 H] spiperone were determined using at least five concentrations of each drug in triplicate. One-half milliliter of membrane suspension was incubated with the compound of interest or vehicle or nonspecific drug, ligand and appropriate Tris HCl buffer. The final reaction volume totaled 1 ml for each tube and was incubated at 37° C. for 15 min to facilitate binding and ensure equilibrium had been met. A Brandel filtering system equipped with GF/B filters was used to separate bound from free drug. The amount of drug bound to the membranes was assessed using liquid scintillation counting techniques. IC50 values were obtained from a least squares regression of a logit-log transformation of the data. Typical values in this test were, for example, 103 nM (nanomolar) for the compound of Example 6, 84 nM for the compound of Example 15, and 15 nM for the compound of Example 21.

[2] = test system: apomorphine-induced climbing and apomorphine-induced disruption of swimming; test: Test B: antagonism of apomorphine-induced climbing and apomorphine-induced disruption of swimming; type: in vivo; details: Mus musculus; oral, female Swiss-Webster mice, 30 min before apomorphine HCl 1.25 mg/kg sc; typical values; read-out: minimum effective dose (decrease in climbing score accompanied by increase in swimming score)
Protocol: as §1
Female Swiss-Webster mice weighing approximately 20 g were deprived of food for approximately 24 h and then dosed orally with various doses of either the vehicle or test agent over a range of doses (N=20 mice per treatment group). Thirty minutes later they were dosed with apomorphine HCl at 1.25 mg/kg, sc, and placed into climbing cages. The climbing cages were 9 cm wide, 15 cm deep and 30 cm high. One wall had 27 horizontal rungs spaced 1 cm apart. Thirteen minutes after apomorphine each mouse was observed continuously for 1 min and the highest and lowest rung reached by its front paws was recorded. The mean of these two scores was used as the score for that mouse. (The highest and lowest scores were 27 and 0, respectively.) Immediately after the 1-min climbing observation period each mouse was placed into a circular swimming tank for 2 min and the number of swims was counted. The height of the tank was 15 cm and the diameter was 28 cm. A circular obstacle measuring 10.5 cm in diameter and having a height of 17 cm was placed into the center of the tank, creating a circular swimming channel 8.75 cm wide. The water level was 5.5 cm and the water was kept at room temperature. Marks were placed on the floor and side of the tank 180 degrees apart. A "swim" was scored each time a mouse swam from one mark to the other. The mice were observed through overhead mirrors and the number of 180 degree swims was recorded for each mouse. Activity in this test was indicated by a decrease in the climbing score accompanied by an increase in the swimming score at a given dose of the test compound. Typical values of minimum effective doses in this test were 10 mg/kg for the compound of Example 6 and 20 mg/kg for each of the compounds of Examples 15 and 21.

T1 sequence (P61169 whole entry): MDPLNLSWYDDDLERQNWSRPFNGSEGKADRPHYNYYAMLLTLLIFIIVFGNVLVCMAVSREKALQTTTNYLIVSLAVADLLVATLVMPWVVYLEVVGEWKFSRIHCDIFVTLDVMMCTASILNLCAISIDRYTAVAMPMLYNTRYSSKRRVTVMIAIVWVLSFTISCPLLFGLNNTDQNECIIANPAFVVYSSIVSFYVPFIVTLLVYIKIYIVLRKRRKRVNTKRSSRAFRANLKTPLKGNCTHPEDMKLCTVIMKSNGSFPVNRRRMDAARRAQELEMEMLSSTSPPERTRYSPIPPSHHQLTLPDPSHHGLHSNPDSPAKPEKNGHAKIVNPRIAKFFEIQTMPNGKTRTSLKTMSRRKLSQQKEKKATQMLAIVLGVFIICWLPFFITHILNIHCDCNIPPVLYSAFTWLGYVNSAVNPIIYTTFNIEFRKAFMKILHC

`OC(c1cccnc1)C1CCN(CC23CC(c4ccccc42)c2ccccc23)CC1` (stereo not drawn) [Example 6, 1-[1-(9,10-Dihydro-9,10-methanoanthracen-9-ylmethyl)-4-piperidyl]-1-(3-pyridyl)methanol] showed an IC50 [1] of 103 nM and a minimal effective dose [2] of 10 mg/kg.
For `COc1ccc(C(O)C2CCN(CC34CC(c5ccccc53)c3ccc(Cl)cc34)CC2)cc1` (racemic) [Example 21, (R,S)-1-[1-((9RS, 10RS)-2-Chloro-9,10-dihydro-9,10-methanoanthracen-9-ylmethyl)-4-piperidyl]-1-(4-methoxyphenyl)methanol], the IC50 [1] was 15 nM and the minimal effective dose [2] was 20 mg/kg.
In the case of `COc1cccc(C(O)C2CCN(CC34CC(c5ccccc53)c3ccc(Cl)cc34)CC2)c1` (racemic) [Example 15, (R,S)-1-[1-((9RS,10RS)-2-Chloro-9,10-dihydro-9,10-methanoanthracen-9-ylmethyl)-4-piperidyl]-1-(3-methoxyphenyl)methanol], the IC50 [1] is reported as 84 nM and the minimal effective dose [2] is reported as 20 mg/kg.
